molecular target: T1, EP2 receptor (Homo sapiens, UniProt P43116); assay: EP2 potency assay (cAMP TR-FRET, LANCE Ultra cAMP kit) in transfected CHO-K1 cells stimulated with PGE2 at EC80; format: cell-based; conditions: Table (V), EP2 antagonism, CHO-K1 cells expressing EP2, PGE2 at EC80
T1 construct: expressed in transfected cells; host or cells: CHO-K1 cells (ATCC), transient transfection with FuGENE 6
Method: Compound potency was measured using a cAMP TR-FRET assay. CHO-K1 cells (ATCC) were seeded at a density of 9.75×105 in 6 cm plates, and then on the following day cell media was changed to Opti-Mem I reduced serum media (Gibco), and transfected with a plasmid for expression of the EP2 receptor (the target receptor of interest), using the FuGENE 6 Transfection reagent (Promega). After 6 hours incubation, the cell media was replaced with F12 medium supplemented with 10% FBS and 100 U/ml Pen-Strep. 24 hours after transfection, cells were harvested and seeded at a density of 3000 cells/well in a 384 well plate to perform the cAMP assay, using the LANCE Ultra cAMP assay kit (PerkinElmer). For each test compound of interest, 10 nl/well of serially diluted test compound was added to each well, resulting in a range of 10 serially diluted compound concentrations from 10000 nM to 0.038 nM, with duplicate wells for each concentration. Plates were then centrifuged at 1000 rpm for 1 min, agitated at 600 rpm at R.T. for 2 min, and incubated at 25° C. for 5 min. The reference agonist, prostaglandin E2 (MCE), was added to each well at the appropriate concentration to reach its EC80 value. Plates were then centrifuged at 1000 rpm for 1 min, agitated at 600 rpm at R.T. for 2 min, and incubated at 25° C. for 30 min. To measure levels of cAMP, 5 μl/well of Eu-cAMP working solution and 5 μl/well of Ulight-anti-cAMP working solution were added to each well, and the plate was centrifuged at 1000 rpm for 1 min, agitated at 600 rpm at R.T. for 2 min, and incubated at 25° C. for 15 min. Levels of TR-FRET fluorescence were measured in each well using an EnVision microplate reader (excitation wavelength=337 nm and emission wavelength=615 and 665 nm). A dose-response curve was prepared by plotting percent inhibition for each compound concentration, and then IC50 was calculated by fitting a curve to the plotted values and extrapolating the IC50 concentration. […] Potency data is grouped into categories of AA (IC50<100 nM); A (IC50=100 to 500 nM); B (IC50=500 nM to […]); C (IC50=1 μM to 5 μM); and D (IC50>5 μM).

T1 sequence (P43116 whole entry): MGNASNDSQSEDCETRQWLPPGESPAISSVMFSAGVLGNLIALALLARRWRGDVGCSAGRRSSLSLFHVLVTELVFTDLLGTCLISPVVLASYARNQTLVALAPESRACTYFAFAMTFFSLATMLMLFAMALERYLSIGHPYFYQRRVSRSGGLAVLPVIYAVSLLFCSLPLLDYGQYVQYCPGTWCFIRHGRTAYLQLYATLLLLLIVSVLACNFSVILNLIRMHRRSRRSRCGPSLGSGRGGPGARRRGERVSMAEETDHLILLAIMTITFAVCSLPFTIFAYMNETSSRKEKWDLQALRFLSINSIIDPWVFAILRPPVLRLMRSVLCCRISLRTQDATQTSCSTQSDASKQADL

Row | SMILES | IC50
1 | Nc1cc(CN2CCOc3c(Cl)cc(-n4ccc5cc(F)ccc54)cc3C2)cnn1 [II-23, 5-((9-chloro-7-(5-fluoro-1H-indol-1-yl)-2,3-dihydrobenzo[f][1,4]oxazepin-4(5H)-yl)methyl)pyridazin-3-amine] | 500 to 1000 nM
2 | Cc1nc(=O)[nH]c(C)c1CN1CCOc2c(Cl)cc(-n3ccc4cc(F)ccc43)cc2C1 [II-24, 5-((9-chloro-7-(5-fluoro-1H-indol-1-yl)-2,3-dihydrobenzo[f][1,4]oxazepin-4(5H)-yl)methyl)-4,6-dimethylpyrimidin-2(1H)-one] | 500 to 1000 nM
3 | Fc1ccc2c(ccn2-c2cc(Cl)c3c(c2)CN(Cc2cnc(C4=NCCN4)nc2)CCO3)c1 [II-26, 9-chloro-4-((2-(4,5-dihydro-1H-imidazol-2-yl)pyrimidin-5-yl)methyl)-7-(5-fluoro-1H-indol-1-yl)-2,3,4,5-tetrahydrobenzo[f][1,4]oxazepine] | > 5000 nM
4 | Fc1ccc2c(ccn2-c2cc(Cl)c3c(c2)CN(Cc2cnc4[nH]ccc4c2)CCO3)c1 [II-27, 4-((1H-pyrrolo[2,3-b]pyridin-5-yl)methyl)-9-chloro-7-(5-fluoro-1H-indol-1-yl)-2,3,4,5-tetrahydrobenzo[f][1,4]oxazepine] | 100 to 500 nM
5 | Cc1nc(Cl)nc(C)c1CN1CCOc2c(Cl)cc(-n3ccc4cc(F)ccc43)cc2C1 [II-28, 9-chloro-4-((2-chloro-4,6-dimethylpyrimidin-5-yl)methyl)-7-(5-fluoro-1H-indol-1-yl)-2,3,4,5-tetrahydrobenzo[f][1,4]oxazepine] | 1000 to 5000 nM
6 | COc1ncncc1CN1CCOc2c(Cl)cc(-n3ccc4cc(F)ccc43)cc2C1 [II-29, 9-chloro-7-(5-fluoro-1H-indol-1-yl)-4-((4-methoxypyrimidin-5-yl)methyl)-2,3,4,5-tetrahydrobenzo[f][1,4]oxazepine] | 500 to 1000 nM
7 | Fc1ccc2c(ccn2-c2cc(Cl)c3c(c2)CN(Cc2cnc4[nH]ncc4c2)CCO3)c1 [II-31, 4-((1H-pyrazolo[3,4-b]pyridin-5-yl)methyl)-9-chloro-7-(5-fluoro-1H-indol-1-yl)-2,3,4,5-tetrahydrobenzo[f][1,4]oxazepine] | 1000 to 5000 nM
8 | Cn1ncc(CN2CCOc3c(Cl)cc(-n4ccc5cc(F)ccc54)cc3C2)cc1=O [II-32, 5-((9-chloro-7-(5-fluoro-1H-indol-1-yl)-2,3-dihydrobenzo[f][1,4]oxazepin-4(5H)-yl)methyl)-2-methylpyridazin-3(2H)-one] | 100 to 500 nM

Results, then the compound that gave them:

Row | IC50 | SMILES
9 | < 100 nM | Fc1ccc2c(ccn2-c2cc(Cl)c3c(c2)CN(Cc2cnc(-c4nnn[nH]4)nc2)CCO3)c1 [II-22, 4-((2-(1H-tetrazol-5-yl)pyrimidin-5-yl)methyl)-9-chloro-7-(5-fluoro-1H-indol-1-yl)-2,3,4,5-tetrahydrobenzo[f][1,4]oxazepine]
10 | < 100 nM | CS(=O)(=O)NC(=O)c1ncc(CN2CCOc3c(Cl)cc(-n4ccc5cc(F)ccc54)cc3C2)cn1 [II-25, 5-((9-chloro-7-(5-fluoro-1H-indol-1-yl)-2,3-dihydrobenzo[f][1,4]oxazepin-4(5H)-yl)methyl)-N-(methylsulfonyl)pyrimidine-2-carboxamide]
11 | < 100 nM | COc1ncc(CN2CCOc3c(Cl)cc(-n4ncc5cc(F)ccc54)cc3C2)cn1 [II-33, 9-chloro-7-(5-fluoro-1H-indazol-1-yl)-4-((2-methoxypyrimidin-5-yl)methyl)-2,3,4,5-tetrahydrobenzo[f][1,4]oxazepine]
12 | < 100 nM | Nc1ncc(CN2CCOc3c(Cl)cc(-n4ccc5c(F)c(F)ccc54)cc3C2)cn1 [II-36, 5-((9-chloro-7-(4,5-difluoro-1H-indol-1-yl)-2,3-dihydrobenzo[f][1,4]oxazepin-4(5H)-yl)methyl)pyrimidin-2-amine]
13 | < 100 nM | O=c1ncc(CN2CCOc3c(Cl)cc(-c4coc5cc(F)ccc45)cc3C2)c[nH]1 [II-38, 5-((9-chloro-7-(6-fluorobenzofuran-3-yl)-2,3-dihydrobenzo[f][1,4]oxazepin-4(5H)-yl)methyl)pyrimidin-2(1H)-one]

Source: patent US20260234130A1, “EP2 Antagonist Compounds” (Reservoir Neuroscience, Inc., priority 2022, published 2026)
